The source of these data is article PMC7368294 (Proceedings of the National Academy of Sciences of the …, 2020).

In experiment [1] the target is Btα1/Btα2/Btα8/Btβ1 nAChR (Bombus terrestris, UniProt A0A9B0BGM1+A0A9B0F4H3+A0A9B2JDZ7+A0A9B2JMX7). The experiment can be described thus: two-electrode voltage clamp of Xenopus oocytes, agonist concentration-response. Type of experiment: cell-based. (In general: In two-electrode clamp one electrode senses voltage and the other passes current.)
In experiment [2] the target is Amα1/Amα2/Amα8/Amβ1 nAChR (Apis mellifera, UniProt A0A7M7MMZ9+A0A8U0WQ70+A0A8U0WQC0+A0A8U0WQD1). Described as above. Type of experiment: cell-based.
Another experiment deals with T1, Dα1/Dα2/Dβ1 nAChR (Drosophila melanogaster, UniProt P04755+P09478+P17644).
T1 sequence (P09478 22-567): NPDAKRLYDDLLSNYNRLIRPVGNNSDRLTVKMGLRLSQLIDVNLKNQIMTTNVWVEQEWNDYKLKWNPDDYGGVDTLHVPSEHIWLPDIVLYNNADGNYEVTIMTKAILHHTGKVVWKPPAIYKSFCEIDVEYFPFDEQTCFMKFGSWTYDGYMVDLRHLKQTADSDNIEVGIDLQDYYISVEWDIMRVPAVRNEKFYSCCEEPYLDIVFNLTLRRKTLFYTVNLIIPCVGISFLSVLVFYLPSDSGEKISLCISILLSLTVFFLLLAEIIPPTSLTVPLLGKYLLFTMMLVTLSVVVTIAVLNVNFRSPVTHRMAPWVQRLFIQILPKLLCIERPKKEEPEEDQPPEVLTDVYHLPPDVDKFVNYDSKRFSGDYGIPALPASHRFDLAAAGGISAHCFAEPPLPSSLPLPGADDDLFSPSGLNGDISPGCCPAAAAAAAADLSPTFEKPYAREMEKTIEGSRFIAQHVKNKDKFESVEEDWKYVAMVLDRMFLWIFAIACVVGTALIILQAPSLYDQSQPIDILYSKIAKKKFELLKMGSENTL
T1 sequence (P17644 22-576): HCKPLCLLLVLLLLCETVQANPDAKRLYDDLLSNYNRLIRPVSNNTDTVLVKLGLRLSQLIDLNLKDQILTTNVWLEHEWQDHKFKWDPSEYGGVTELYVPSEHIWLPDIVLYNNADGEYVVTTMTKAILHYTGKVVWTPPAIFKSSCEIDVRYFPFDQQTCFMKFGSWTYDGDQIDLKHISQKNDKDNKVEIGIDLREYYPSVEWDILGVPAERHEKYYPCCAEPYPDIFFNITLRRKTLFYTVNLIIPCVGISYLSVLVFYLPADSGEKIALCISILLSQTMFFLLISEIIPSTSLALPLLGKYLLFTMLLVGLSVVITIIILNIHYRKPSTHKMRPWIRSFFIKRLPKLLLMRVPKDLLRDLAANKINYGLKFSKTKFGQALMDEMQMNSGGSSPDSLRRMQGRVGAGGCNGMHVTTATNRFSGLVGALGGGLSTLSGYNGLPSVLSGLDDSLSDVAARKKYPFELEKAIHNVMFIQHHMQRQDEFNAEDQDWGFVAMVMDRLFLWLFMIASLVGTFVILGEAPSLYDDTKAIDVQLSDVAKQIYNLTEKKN
T1 sequence (P04755 25-521): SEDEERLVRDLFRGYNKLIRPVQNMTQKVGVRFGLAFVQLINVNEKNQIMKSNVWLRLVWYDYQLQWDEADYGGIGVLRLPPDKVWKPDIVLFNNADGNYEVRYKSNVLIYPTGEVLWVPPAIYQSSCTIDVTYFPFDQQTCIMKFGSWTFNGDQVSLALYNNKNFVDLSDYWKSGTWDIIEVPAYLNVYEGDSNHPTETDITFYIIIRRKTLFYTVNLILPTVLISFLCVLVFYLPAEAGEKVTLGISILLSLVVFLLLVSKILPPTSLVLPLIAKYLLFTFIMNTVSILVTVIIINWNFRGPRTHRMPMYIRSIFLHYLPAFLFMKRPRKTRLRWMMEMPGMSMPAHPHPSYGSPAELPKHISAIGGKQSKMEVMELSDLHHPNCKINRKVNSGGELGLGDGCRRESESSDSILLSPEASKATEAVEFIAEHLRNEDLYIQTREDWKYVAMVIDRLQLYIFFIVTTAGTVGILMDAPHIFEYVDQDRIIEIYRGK
The experiment can be described thus: cell-based. The note with it: Oocyte. On the set-up: species or system Xenopus laevis oocytes.

For a further experiment, the target named is Dα1/Dα2/Dβ1/Dβ2 nAChR (Drosophila melanogaster, UniProt P04755+P09478+P17644+P25162). The experiment can be described thus: cell-based. On the set-up: species or system Xenopus laevis oocytes. Conditions: Oocyte.

Read-outs that look alike come from different tables or passages of the source.

The EC50 is the concentration that produces a half-maximal response. A high value points to a need for much substance. Consider `CN/C(=N\[N+](=O)[O-])NCc1cnc(Cl)s1` [clothianidin], for which the values for the half-maximal effective concentration (EC50) in experiment [1] and in experiment [2] were 38.9 nM and 8.13 nM, respectively. Also, the Emax was found to be 46.7 ± 2.1% on Dα1/Dα2/Dβ1 nAChR (read-out: Clothianidin / Imax) and 82.1 ± 1.7% on Dα1/Dα2/Dβ1/Dβ2 nAChR (read-out: Clothianidin / Imax / ND).

Regarding `O=[N+]([O-])NC1=NCCN1Cc1ccc(Cl)nc1` [imidacloprid], the figures for the EC50 in experiment [1] and in experiment [2] were 39.8 nM and 33.1 nM, respectively. Also, the figures for the Emax on Dα1/Dα2/Dβ1 nAChR (read-out: Imidacloprid / Imax) and at Dα1/Dα2/Dβ1/Dβ2 nAChR (read-out: Imidacloprid / Imax) were 4.6 ± 0.4% and 59.2 ± 3%, respectively.

Regarding `N#C/N=C1\SCCN1Cc1ccc(Cl)nc1` [thiacloprid], the values for the EC50 in experiment [1] and in experiment [2] were 72.4 nM and 6.92 nM, respectively. Further, the Emax came to 2 ± 0.2% on Dα1/Dα2/Dβ1 nAChR (read-out: Thiacloprid / Imax) and 45.4 ± 1.9% at Dα1/Dα2/Dβ1/Dβ2 nAChR (read-out: Thiacloprid / Imax).
